Literature values, collected in patent US20170151174A1, “MAGNETOENZYMATIC CARRIER SYSTEM FOR IMAGING AND TARGETED DELIVERY AND RELEASE OF ACTIVE AGENTS” (priority 2014, published 2017).

Tested on: colon HT-29 cancer cells
Details: SMase activity of 0.5 U/ml

Substance: sphingomyelinase [SMase]
- cell death: 80%
